“Also recorded” adds a separate entry of the source.
Assays:
[1] = test system: retinal endothelial cells; experiment: VEGF/TNF-induced retinal endothelial permeability assay; assay type: cell-based; settings: dose response; in words
Akt activation = settings: endothelial cells; cited from earlier work
Erk activation = settings: endothelial cells; cited from earlier work
AGC kinases = settings: panel of 20 AGC kinases; cited from earlier work
[2] = test system: aPKC isoforms (PKCζ, PKCι); experiment: kinase potency against aPKC isoforms; settings: without discrimination for PKCζ or PKCι; in words
[3] = test system: TNF-induced NFκB activation; assay type: cell-based; settings: single dose of 0.1 μM; in words

SMILES | efficacy in preventing TNF/VEGF-induced endothelial permeability [1] | block of VEGF-induced Akt activation (Akt activation) | block of VEGF-induced Erk activation (Erk activation) | specificity towards aPKC isoforms versus AGC family members (AGC kinases) | potency against aPKC isoforms [2] | inhibition of TNF-induced NFκB activity [3]
COc1ccc(-c2csc(N)c2C(=O)OC(C)C)cc1OC [compound 6] | good efficacy | does not block | does not block | high degree of specificity; also recorded: excellent selectivity | low micromolar to high nanomolar potency | 
COc1ccc(-c2csc(N)c2C(=O)OCc2ccccc2)cc1OC [compound 10] |  |  |  |  |  | significant inhibition
COc1cccc(COC(=O)c2c(-c3ccc(OC)c(OC)c3)csc2N)c1 [compound 14] |  |  |  |  | low micromolar to high nanomolar potency | significant inhibition
CCOC(=O)c1c(-c2ccc(N)cc2)csc1N [compound 29] | good efficacy |  |  |  |  | significant inhibition
CCOC(=O)c1c(-c2ccc(N(C)C)cc2)csc1N [compound 30] | good efficacy |  |  |  | low micromolar to high nanomolar potency | 
CCOC(=O)c1c(-c2ccc3c(c2)OCO3)csc1N [compound 32] | good efficacy |  |  |  | low micromolar to high nanomolar potency | significant inhibition

From PMC3634901 (Bioorganic & medicinal chemistry letters, 2013)
